What was measured:
lambsquarters = experiment: Test E preemergence; type: in vivo, Chenopodium album; details: for Lambsquarters plant response rating: scale 0 to 100 (0 no effect, 100 complete control); for Plant response rating, Lambsquarters: scale 0 to 100, 0 no effect, 100 complete control
Source text: (§1) Seeds of plant species selected from corn (Zea mays), soybean (Glycine max), velvetleaf (Abutilon theophrasti), lambsquarters (Chenopodium album), wild poinsettia (Euphorbia heterophylla), palmer pigweed (Amaranthus palmeri), waterhemp (common waterhemp, Amaranthus rudis), surinam grass (Brachiaria decumbens), large (Lg) crabgrass (Digitaria sanguinalis), Brazilian crabgrass (Digitaria horizontalis), fall panicum (Panicum dichotomiflorum), giant foxtail (Setaria faberii), green foxtail (Setaria viridis), goosegrass (Eleusine indica), johnsongrass (Sorghum halepense), ragweed (common ragweed, Ambrosia elatior), barnyardgrass (Echinochloa crus-galli), sandbur (southern sandbur, Cenchrus echinatus), arrowleaf sida (Sida rhombifolia), Italian ryegrass (Lolium multiflorum), dayflower (Virginia (VA) dayflower, Commelina virginica), field bindweed (Convolvulus arvensis), morningglory (Ipomoea coccinea), nightshade (eastern black nightshade, Solanum ptycanthum), kochia (Kochia scoparia), yellow nutsedge (Cyperus esculentus), cocklebur (common cocklebur, Xanthium strumarium), smartweed (ladysthumb smartweed, and hairy beggarticks (Bidens pilosa), were planted into a silt loam soil and treated preemergence with test chemicals formulated in a non-phytotoxic solvent mixture which included a surfactant.
(§2) At the same time, plants from these crop and weed species and also horseweed (Canada horseweed, Conyza canadensis), waterhemp_RES1, (ALS & Triazine resistant common waterhemp, Amaranthus rudis), and waterhemp_RES2, (ALS & HPPD resistant common waterhemp, Amaranthus rudis) were planted in pots containing Redi-Earth® planting medium (Scotts Company, 14111 Scottslawn Road, Marysville, Ohio 43041) comprising spaghnum peat moss, vermiculite, wetting agent and starter nutrients were treated with postemergence applications of test chemicals formulated in the same manner. Plants ranged in height from 2 to 18 cm for postemergence treatments (1- to 4-leaf stage). Treated plants and controls were maintained in a greenhouse for 14 to 21 days, after which time all species were compared to controls and visually evaluated. Plant response ratings, summarized in Table E, are based on a scale of 0 to 100 where 0 is no effect and 100 is complete control. A dash (-) response means no test result.

field bindweed = experiment: Test E preemergence; type: in vivo, Convolvulus arvensis; details: for Field Bindweed plant response rating: scale 0 to 100 (0 no effect, 100 complete control); for Plant response rating, Field Bindweed: scale 0 to 100, 0 no effect, 100 complete control
Source text: as §1, §2

corn = experiment: Test E preemergence; type: in vivo, Zea mays; details: for Corn plant response rating: scale 0 to 100 (0 no effect, 100 complete control); for Plant response rating, Corn: scale 0 to 100, 0 no effect, 100 complete control
Summary of the method: (§3)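 Response was scored visually on a 0-100 scale (100 = complete control) versus controls after 14 to 21 days in the greenhouse. Test chemicals, formulated with surfactant in a non-phytotoxic solvent mixture, had been applied preemergence to seeds in silt loam soil or postemergence to 1- to 4-leaf plants in potting medium.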

wild poinsettia = experiment: Test E preemergence; type: in vivo, Euphorbia heterophylla; details: for Poinsettia, Wild plant response rating: scale 0 to 100 (0 no effect, 100 complete control); for Plant response rating, Poinsettia, Wild: scale 0 to 100, 0 no effect, 100 complete control
Source text: as §1, §2

goosegrass = experiment: Test E preemergence; type: in vivo, Eleusine indica; details: for Goosegrass plant response rating: scale 0 to 100 (0 no effect, 100 complete control); for Plant response rating, Goosegrass: scale 0 to 100, 0 no effect, 100 complete control
Summary of the method: as §3

barnyardgrass = experiment: Test E preemergence; type: in vivo, Echinochloa crus-galli; details: for Barnyardgrass plant response rating: scale 0 to 100 (0 no effect, 100 complete control); for Plant response rating, Barnyardgrass: scale 0 to 100, 0 no effect, 100 complete control
Summary of the method: as §3

Brazilian crabgrass = experiment: Test E preemergence; type: in vivo, Digitaria horizontalis; details: for Crabgrass, Brazil plant response rating: scale 0 to 100 (0 no effect, 100 complete control); for Plant response rating, Crabgrass, Brazil: scale 0 to 100, 0 no effect, 100 complete control
Source text: as §1, §2

waterhemp = experiment: Test E preemergence; type: in vivo, Amaranthus rudis; details: for Waterhemp plant response rating: scale 0 to 100 (0 no effect, 100 complete control); for Plant response rating, Waterhemp: scale 0 to 100, 0 no effect, 100 complete control
Summary of the method: as §3

kochia [1] = experiment: Test A postemergence; type: in vivo, Kochia scoparia; details: 0 to 100 scale where 0 is no effect and 100 is complete control
Summary of the method: (§4)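 Compounds in non-phytotoxic solvent with surfactant applied as soil spray preemergence, or postemergence to plants 2-10 cm at one- to two-leaf stage, in loam/sand. After approximately 10 days in greenhouse, injury rated visually versus untreated controls, 0 (no effect) to 100 (complete control).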

kochia [2] = experiment: Test A preemergence; type: in vivo, Kochia scoparia
Summary of the method: as §4

galium = experiment: Test A postemergence; type: in vivo, Galium aparine; details: 0 to 100 scale where 0 is no effect and 100 is complete control
Summary of the method: as §4

Italian ryegrass = experiment: Test A preemergence; type: in vivo, Lolium multiflorum
Summary of the method: as §4

ragweed = experiment: Test A preemergence; type: in vivo, Ambrosia elatior
Summary of the method: as §4

[3] = 125 g ai/ha, 0 to 100 scale where 0 is no effect and 100 is complete control
[4] = 500 g ai/ha, 0 to 100 scale, 0 no effect, 100 complete control, approx. 10 days

`N#Cc1cccc(Oc2ncc(F)cn2)c1-n1cc(Cl)cn1` [Compound 73] was tested, and the “Lambsquarters plant response rating” value (lambsquarters; 16 g ai/ha) was 10, the “Lambsquarters plant response rating” value (lambsquarters; 31 g ai/ha) was 65 and the “Lambsquarters plant response rating” value (lambsquarters; 62 g ai/ha) was 98. For the same molecule, the “Plant response rating, Lambsquarters” value (lambsquarters; 125 g ai/ha) was 100, the “Plant response rating, Lambsquarters” value (lambsquarters; 250 g ai/ha) was 100 and the “Field Bindweed plant response rating” value (field bindweed; 16 g ai/ha) was 0. The “Field Bindweed plant response rating” value (field bindweed; 31 g ai/ha) was 15, the “Field Bindweed plant response rating” value (field bindweed; 62 g ai/ha) was 50 and the “Plant response rating, Field Bindweed” value (field bindweed; 125 g ai/ha) was 75. For the same molecule, the “Plant response rating, Field Bindweed” value (field bindweed; 250 g ai/ha) was 85, the “Corn plant response rating” value (corn; 16 g ai/ha) was 0 and the “Corn plant response rating” value (corn; 31 g ai/ha) was 0. For the same molecule, the “Corn plant response rating” value (corn; 62 g ai/ha) was 0, the “Plant response rating, Corn” value (corn; 125 g ai/ha) was 0 and the “Plant response rating, Corn” value (corn; 250 g ai/ha) was 5. The “Poinsettia, Wild plant response rating” value (wild poinsettia; 16 g ai/ha) was 0, the “Poinsettia, Wild plant response rating” value (wild poinsettia; 31 g ai/ha) was 30 and the “Poinsettia, Wild plant response rating” value (wild poinsettia; 62 g ai/ha) was 35. The “Plant response rating, Poinsettia, Wild” value (wild poinsettia; 125 g ai/ha) was 65, the “Plant response rating, Poinsettia, Wild” value (wild poinsettia; 250 g ai/ha) was 85 and the “Goosegrass plant response rating” value (goosegrass; 16 g ai/ha) was 0. The “Goosegrass plant response rating” value (goosegrass; 31 g ai/ha) was 20, the “Goosegrass plant response rating” value (goosegrass; 62 g ai/ha) was 70 and the “Plant response rating, Goosegrass” value (goosegrass; 125 g ai/ha) was 98. For the same molecule, the “Plant response rating, Goosegrass” value (goosegrass; 250 g ai/ha) was 100, the “Barnyardgrass plant response rating” value (barnyardgrass; 16 g ai/ha, preemergence) was 0 and the “Barnyardgrass plant response rating” value (barnyardgrass; 31 g ai/ha, preemergence) was 0. For the same molecule, the “Plant response rating, Barnyardgrass” value (barnyardgrass; Preemergence, 62 g ai/ha) was 0, the “Plant response rating, Barnyardgrass” value (barnyardgrass; preemergence, 125 g ai/ha) was 20 and the “Plant response rating, Barnyardgrass” value (barnyardgrass; preemergence, 250 g ai/ha) was 75. For the same molecule, the “Crabgrass, Brazil plant response rating” value (Brazilian crabgrass; 16 g ai/ha) was 25, the “Crabgrass, Brazil plant response rating” value (Brazilian crabgrass; 31 g ai/ha) was 95 and the “Crabgrass, Brazil plant response rating” value (Brazilian crabgrass; 62 g ai/ha) was 100. The “Plant response rating, Crabgrass, Brazil” value (Brazilian crabgrass; 125 g ai/ha) was 100, the “Plant response rating, Crabgrass, Brazil” value (Brazilian crabgrass; 250 g ai/ha) was 100 and the “Waterhemp plant response rating” value (waterhemp; 16 g ai/ha) was 65. For the same molecule, the “Waterhemp plant response rating” value (waterhemp; 31 g ai/ha) was 100, the “Waterhemp plant response rating” value (waterhemp; 62 g ai/ha) was 100 and the “Plant response rating, Waterhemp” value (waterhemp; 125 g ai/ha) was 100. The “Plant response rating, Waterhemp” value (waterhemp; 250 g ai/ha) was 100.

In the case of `N#Cc1cccc(Oc2ncc(F)cn2)c1-n1cc(I)cn1` [Compound 86], the “Lambsquarters plant response rating” value (lambsquarters; 16 g ai/ha) is reported as 0, the “Lambsquarters plant response rating” value (lambsquarters; 31 g ai/ha) is reported as 65 and the “Lambsquarters plant response rating” value (lambsquarters; 62 g ai/ha) is reported as 100. The “Plant response rating, Lambsquarters” value (lambsquarters; 125 g ai/ha) was 100, the “Plant response rating, Kochia” value (kochia [1]; 125 g ai/ha) was 100 and the “Plant response rating, Kochia” value (kochia [1]; 500 g ai/ha) was 100. The “Field Bindweed plant response rating” value (field bindweed; 16 g ai/ha) was 0, the “Field Bindweed plant response rating” value (field bindweed; 31 g ai/ha) was 10 and the “Field Bindweed plant response rating” value (field bindweed; 62 g ai/ha) was 20. For the same molecule, the “Plant response rating, Field Bindweed” value (field bindweed; 125 g ai/ha) was 90, the “Corn plant response rating” value (corn; 16 g ai/ha) was 0 and the “Corn plant response rating” value (corn; 31 g ai/ha) was 0. The “Corn plant response rating” value (corn; 62 g ai/ha) was 0, the “Plant response rating, Corn” value (corn; 125 g ai/ha) was 5 and the “Poinsettia, Wild plant response rating” value (wild poinsettia; 16 g ai/ha) was 0. For the same molecule, the “Poinsettia, Wild plant response rating” value (wild poinsettia; 31 g ai/ha) was 10, the “Poinsettia, Wild plant response rating” value (wild poinsettia; 62 g ai/ha) was 20 and the “Plant response rating, Poinsettia, Wild” value (wild poinsettia; 125 g ai/ha) was 65. The “Plant response rating, Kochia” value (kochia [2]; [3]) was 100, the “Kochia plant response rating” value (kochia [2]; [4]) was 100 and the “Plant response rating, Galium” value (galium; 125 g ai/ha) was 100. For the same molecule, the “Plant response rating, Galium” value (galium; 500 g ai/ha) was 100, the “Goosegrass plant response rating” value (goosegrass; 16 g ai/ha) was 0 and the “Goosegrass plant response rating” value (goosegrass; 31 g ai/ha) was 0. The “Goosegrass plant response rating” value (goosegrass; 62 g ai/ha) was 50, the “Plant response rating, Goosegrass” value (goosegrass; 125 g ai/ha) was 50 and the “Barnyardgrass plant response rating” value (barnyardgrass; 16 g ai/ha, preemergence) was 0. For the same molecule, the “Barnyardgrass plant response rating” value (barnyardgrass; 31 g ai/ha, preemergence) was 0, the “Plant response rating, Barnyardgrass” value (barnyardgrass; Preemergence, 62 g ai/ha) was 0 and the “Plant response rating, Barnyardgrass” value (barnyardgrass; preemergence, 125 g ai/ha) was 30. The “Plant response rating, Ryegrass, Italian” value (Italian ryegrass; [3]) was 10, the “Ryegrass, Italian plant response rating” value (Italian ryegrass; [4]) was 60 and the “Crabgrass, Brazil plant response rating” value (Brazilian crabgrass; 16 g ai/ha) was 0. The “Crabgrass, Brazil plant response rating” value (Brazilian crabgrass; 31 g ai/ha) was 0, the “Crabgrass, Brazil plant response rating” value (Brazilian crabgrass; 62 g ai/ha) was 75 and the “Plant response rating, Crabgrass, Brazil” value (Brazilian crabgrass; 125 g ai/ha) was 95. The “Plant response rating, Ragweed” value (ragweed; [3]) was 90, the “Ragweed plant response rating” value (ragweed; [4]) was 100 and the “Waterhemp plant response rating” value (waterhemp; 16 g ai/ha) was 0. For the same molecule, the “Waterhemp plant response rating” value (waterhemp; 31 g ai/ha) was 70, the “Waterhemp plant response rating” value (waterhemp; 62 g ai/ha) was 100 and the “Plant response rating, Waterhemp” value (waterhemp; 125 g ai/ha) was 100.

— patent publication US9695155B2, “Herbicidal substituted pyrimidinyloxy benzene compounds” (E. I. DU PONT DE NEMOURS AND COMPANY, priority 2013, dated 2017)
